Results reported in patent publication US9296694B2, “Azacyclic compounds” (ACADIA Pharmaceuticals Inc., priority 2000, dated 2016).
Counter-ions that a name gives are not always drawn.

Columns and labels:
Assay in all cases: R-SAT selectivity profile of 26HCH16D
[1] = target: T1, alpha1b/B (Mesocricetus auratus, UniProt P18841); format: cell-based, hamster; conditions: 4 doses in duplicate (3, 30, 300, 3000 nM)
T1 construct: expressed in transfected cells; host or cells: NIH3T3, pSI vector
T1 sequence (P18841 1-515): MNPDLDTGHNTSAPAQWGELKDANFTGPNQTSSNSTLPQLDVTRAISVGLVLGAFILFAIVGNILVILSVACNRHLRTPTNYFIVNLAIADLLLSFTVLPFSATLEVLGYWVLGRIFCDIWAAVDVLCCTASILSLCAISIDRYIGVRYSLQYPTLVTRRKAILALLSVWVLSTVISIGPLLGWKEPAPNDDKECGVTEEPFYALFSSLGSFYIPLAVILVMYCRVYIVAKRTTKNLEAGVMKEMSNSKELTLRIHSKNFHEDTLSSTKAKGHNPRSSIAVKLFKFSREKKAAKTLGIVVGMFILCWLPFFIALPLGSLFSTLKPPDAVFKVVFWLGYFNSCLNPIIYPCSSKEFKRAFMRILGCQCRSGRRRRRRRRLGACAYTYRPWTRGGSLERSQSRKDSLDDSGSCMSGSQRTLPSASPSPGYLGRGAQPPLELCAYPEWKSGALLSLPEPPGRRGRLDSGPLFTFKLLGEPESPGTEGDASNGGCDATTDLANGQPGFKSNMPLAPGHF
Experimental: The functional receptor assay, Receptor Selection and Amplification Technology (R-SAT), was used (with minor modifications from that previously described U.S. Pat. No. 5,707,798) to screen compounds for efficacy at the 5-HT2A receptor. Briefly, NIH3T3 cells were grown in 96 well tissue culture plates to 70-80% confluence. Cells were transfected for 12-16 hours with plasmid DNAs using superfect (Qiagen Inc.) as per manufacture's protocols. R-SAT's were generally performed with 50 ng/well of receptor and 20 ng/well of Beta-galactosidase plasmid DNA. All receptor and G-protein constructs used were in the pSI mammalian expression vector (Promega Inc) as described in U.S. Pat. No. 5,707,798. The 5HT2A receptor gene was amplified by nested PCR from brain cDNA using the oligodeoxynucleotides based on the published sequence (see Saltzman et. al. Biochem. Biophys. Res. Comm. 181:1469-78 (1991)). Large-scale transfections, cells were transfected for 12-16 hours, then trypsinized and frozen in DMSO. […] Media was then removed from the plates and marker gene activity was measured by the addition of the beta-galactosidase substrate ONPG (in PBS with 5% NP-40). The resulting colorimetric reaction was measured in a spectrophotometric plate reader (Titertek Inc.) at […]. All data were analyzed using the computer program XLFit (IDBSm). […]

[2] = target: T2, alpha1a/D (Rattus norvegicus, UniProt P23944); format: cell-based; conditions: 4 doses in duplicate (3, 30, 300, 3000 nM)
T2 construct: expressed in transfected cells; host or cells: NIH3T3, pSI vector
T2 sequence (P23944 1-561): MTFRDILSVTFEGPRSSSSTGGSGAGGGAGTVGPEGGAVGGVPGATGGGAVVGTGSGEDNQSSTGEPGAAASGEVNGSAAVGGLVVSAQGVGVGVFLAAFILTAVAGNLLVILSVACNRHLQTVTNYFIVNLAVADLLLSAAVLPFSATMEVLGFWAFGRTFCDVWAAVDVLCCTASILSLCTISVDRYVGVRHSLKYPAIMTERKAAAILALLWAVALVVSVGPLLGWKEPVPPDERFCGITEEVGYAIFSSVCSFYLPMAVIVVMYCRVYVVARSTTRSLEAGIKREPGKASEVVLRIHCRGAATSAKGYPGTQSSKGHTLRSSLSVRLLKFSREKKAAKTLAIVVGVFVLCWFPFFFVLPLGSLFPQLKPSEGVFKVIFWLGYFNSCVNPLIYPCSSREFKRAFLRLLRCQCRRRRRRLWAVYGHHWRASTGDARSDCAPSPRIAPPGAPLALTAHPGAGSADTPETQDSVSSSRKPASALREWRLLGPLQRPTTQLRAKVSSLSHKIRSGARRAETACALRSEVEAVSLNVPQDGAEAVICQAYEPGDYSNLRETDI
Experimental: (§1) The functional receptor assay, Receptor Selection and Amplification Technology (R-SAT), was used (with minor modifications from that previously described U.S. Pat. No. 5,707,798) to screen compounds for efficacy at the 5-HT2A receptor. Briefly, NIH3T3 cells were grown in 96 well tissue culture plates to 70-80% confluence. Cells were transfected for 12-16 hours with plasmid DNAs using superfect (Qiagen Inc.) as per manufacture's protocols. R-SAT's were generally performed with 50 ng/well of receptor and 20 ng/well of Beta-galactosidase plasmid DNA. All receptor and G-protein constructs used were in the pSI mammalian expression vector (Promega Inc) as described in U.S. Pat. No. 5,707,798. The 5HT2A receptor gene was amplified by nested PCR from brain cDNA using the oligodeoxynucleotides based on the published sequence (see Saltzman et. al. Biochem. Biophys. Res. Comm. 181:1469-78 (1991)). Large-scale transfections, cells were transfected for 12-16 hours, then trypsinized and frozen in DMSO. Frozen cells were later thawed, plated at 10,000-40,000 cells per well of a 96 well plate that contained drug. With both methods, cells were then grown in a humidified atmosphere with 5% ambient CO2 for five days. Media was then removed from the plates and marker gene activity was measured by the addition of the beta-galactosidase substrate ONPG (in PBS with 5% NP-40). The resulting colorimetric reaction was measured in a spectrophotometric plate reader (Titertek Inc.) at […]. All data were analyzed using the computer program XLFit (IDBSm). Efficacy is the percent maximal repression compared to repression by a control compound (ritanserin in the case of 5HT2A). pIC50 is the negative of the log(IC50), where IC50 is the calculated concentration in Molar that produces 50% maximal repression.
(§2) R-SAT assays (as described in Example 42) were carried out with cells transfected with receptors (listed below) to determine the receptor selectivity profile for compound 26HCH16D. 5HT2A inverse agonist data (IC50 nM; % efficacy) were derived from detailed dose response curves (7 points in triplicate).

[3] = target: T3, 5HT1A (Rattus norvegicus, UniProt P19327); format: cell-based; conditions: Antagonist; 4 doses in duplicate (3, 30, 300, 3000 nM)
T3 construct: expressed in transfected cells; host or cells: NIH3T3, pSI vector
T3 sequence (P19327 1-422): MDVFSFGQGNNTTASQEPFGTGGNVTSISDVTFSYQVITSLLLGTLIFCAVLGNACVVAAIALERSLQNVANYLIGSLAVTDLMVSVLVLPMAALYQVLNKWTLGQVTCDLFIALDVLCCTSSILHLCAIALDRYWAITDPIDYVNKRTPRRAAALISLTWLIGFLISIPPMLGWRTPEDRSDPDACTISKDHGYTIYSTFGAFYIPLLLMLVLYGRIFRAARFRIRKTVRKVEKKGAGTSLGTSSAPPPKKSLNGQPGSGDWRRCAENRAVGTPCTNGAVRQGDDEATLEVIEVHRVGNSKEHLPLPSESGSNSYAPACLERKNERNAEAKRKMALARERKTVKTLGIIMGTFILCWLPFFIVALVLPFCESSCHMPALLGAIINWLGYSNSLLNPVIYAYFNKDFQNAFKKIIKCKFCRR
Experimental: as §1, §2

In the case of `Cc1ccc(CN(C(=O)NCc2ccccc2)C2CCN(Cc3ccccc3)CC2)cc1` [Compound 26HCH16D, N-((4-Methylphenyl)methyl)-N-(1-(phenylmethyl)piperidin-4-yl)-N′-phenylmethylcarbamide hydrochloride], the Efficacy ([1]; Agonist) is reported as “nr (nr=activity less than 30% at all doses tested (3, 30, 300, 3000 nM), therefore EC50/IC50 greater than 3000 nM))”, the Efficacy ([1]; Antagonist) is reported as “nr (nr=activity less than 30% at all doses tested (3, 30, 300, 3000 nM), therefore EC50/IC50 greater than 3000 nM))” and the Efficacy ([2]; Agonist) is reported as “nr (nr=activity less than 30% at all doses tested (3, 30, 300, 3000 nM), therefore EC50/IC50 greater than 3000 nM))”. The Efficacy ([2]; Antagonist) was “nr (nr=activity less than 30% at all doses tested (3, 30, 300, 3000 nM), therefore EC50/IC50 greater than 3000 nM))” and the Efficacy [3] was “nr (nr=activity less than 30% at all doses tested (3, 30, 300, 3000 nM), therefore EC50/IC50 greater than 3000 nM))”.
